According to patent US8877748B2, “Heterocyclic fused anthraquinone derivatives, manufacturing method and pharmaceutical composition using thereof” (National Defense Medical Center, priority 2012, dated 2014):
pIC50: −log10 of the molar value. Like-named read-outs stand apart in the source and are kept apart here.

Columns and labels:
[1] = test system: PC-3 prostate cancer cell line; test: SRB assay cell viability, PC-3 prostate cancer cell line; type: cell-based, human; conditions: Homo sapiens
SF-268 = test: NCI one-dose screening, CNS cancer SF-268; type: cell-based, human; conditions: 10 μM
UACC-62 = test: NCI one-dose screening, melanoma UACC-62; type: cell-based, human; conditions: 10 μM
PRMI-8226 cell line = test: NCI one-dose screening, leukemia PRMI-8226; type: cell-based, human; conditions: 10 μM
MDA, -MB-435 = test: NCI one-dose screening, breast cancer MDA, -MB-435; type: cell-based, human; conditions: 10 μM; listed under Melanoma
SF-539 = test: NCI one-dose screening, CNS cancer SF-539; type: cell-based, human; conditions: 10 μM
HCT-116 = test: NCI one-dose screening, colon cancer HCT-116; type: cell-based, human; conditions: 10 μM
MALME-3M = test: NCI one-dose screening, melanoma MALME-3M; type: cell-based, human; conditions: 10 μM
MOLT-4 = test: NCI one-dose screening, leukemia MOLT-4; type: cell-based, human; conditions: 10 μM
LOX IMVI = test: NCI one-dose screening, melanoma LOX IMVI; type: cell-based, human; conditions: 10 μM
HS 578-T = test: NCI one-dose screening, breast cancer HS 578-T; type: cell-based, human; conditions: 10 μM; Breast cancer
DU145 = test: NCI one-dose screening, prostate cancer DU145; type: cell-based, human; conditions: 10 μM
OVCAR-3 = test: NCI one-dose screening, ovarian cancer OVCAR-3; type: cell-based, human; conditions: 10 μM
K562cell line = test: NCI one-dose screening, leukemia K562; type: cell-based, human; conditions: 10 μM
OVCAR-4 = test: NCI one-dose screening, ovarian cancer OVCAR-4; type: cell-based, human; conditions: 10 μM
T-47D = test: NCI one-dose screening, breast cancer T-47D; type: cell-based, human; conditions: 10 μM
MCF7 = test: NCI one-dose screening, breast cancer MCF7; type: cell-based, human; conditions: 10 μM
MDA-MB-468 = test: NCI one-dose screening, breast cancer MDA-MB-468; type: cell-based, human; conditions: 10 μM
SN12C = test: NCI one-dose screening, renal cancer SN12C; type: cell-based, human; conditions: 10 μM
SK-OV-3 = test: NCI one-dose screening, ovarian cancer SK-OV-3; type: cell-based, human; conditions: 10 μM
human tumor cell lines = test: NCI one-dose screening, Mean / Delta / Range of growth percent over all tested cell lines; type: cell-based; conditions: 10 μM
SK-MEL-5 = test: NCI one-dose screening, melanoma SK-MEL-5; type: cell-based, human; conditions: 10 μM
KM12 = test: NCI one-dose screening, colon cancer KM12; type: cell-based, human; conditions: 10 μM
SNB-19 = test: NCI one-dose screening, CNS cancer SNB-19; type: cell-based, human; conditions: 10 μM
MDA-MB-231/ATCC = test: NCI one-dose screening, breast cancer MDA-MB-231/ATCC; type: cell-based, human; conditions: 10 μM
SF-295 = test: NCI one-dose screening, CNS cancer SF-295; type: cell-based, human; conditions: 10 μM
OVCAR-8 = test: NCI one-dose screening, ovarian cancer OVCAR-8; type: cell-based, human; conditions: 10 μM
NCI-H460 = test: NCI one-dose screening, non-small cell lung cancer NCI-H460; type: cell-based, human; conditions: 10 μM
TK-10 = test: NCI one-dose screening, renal cancer TK-10; type: cell-based, human; conditions: 10 μM
CCRF-CEM = test: NCI screening platform one-dose single concentration screening, leukemia CCRF-CEM; type: cell-based, human; conditions: 10 μM
HL-60, TB = test: NCI one-dose screening, leukemia HL-60, TB; type: cell-based, human; conditions: 10 μM
CAKI-1 = test: NCI one-dose screening, renal cancer CAKI-1; type: cell-based, human; conditions: 10 μM
HCC-2998 = test: NCI one-dose screening, colon cancer HCC-2998; type: cell-based, human; conditions: 10 μM
UO-31 = test: NCI one-dose screening, renal cancer UO-31; type: cell-based, human; conditions: 10 μM
SK-MEL-28 = test: NCI one-dose screening, melanoma SK-MEL-28; type: cell-based, human; conditions: 10 μM
HOP-62 = test: NCI one-dose screening, non-small cell lung cancer HOP-62; type: cell-based, human; conditions: 10 μM
SR = test: NCI one-dose screening, leukemia SR; type: cell-based, human; conditions: 10 μM
COLO 205 = test: NCI one-dose screening, colon cancer COLO 205; type: cell-based, human; conditions: 10 μM
IGROV1 = test: NCI one-dose screening, ovarian cancer IGROV1; type: cell-based, human; conditions: 10 μM
BT-549 = test: NCI one-dose screening, breast cancer BT-549; type: cell-based, human; conditions: 10 μM
NCl/ADR-RES = test: NCI one-dose screening, breast cancer NCl/ADR-RES; type: cell-based, human; conditions: 10 μM; listed under Ovarian cancer
RXF, 393 = test: NCI one-dose screening, renal cancer RXF, 393; type: cell-based, human; conditions: 10 μM
786-O = test: NCI one-dose screening, renal cancer 786-O; type: cell-based, human; conditions: 10 μM
UACC-257 = test: NCI one-dose screening, melanoma UACC-257; type: cell-based, human; conditions: 10 μM
A549/ATCC = test: NCI one-dose screening, non-small cell lung cancer A549/ATCC; type: cell-based, human; conditions: 10 μM
SNB-75 = test: NCI one-dose screening, CNS cancer SNB-75; type: cell-based, human; conditions: 10 μM
PC-3 = test: NCI one-dose screening, prostate cancer PC-3; type: cell-based, human; conditions: 10 μM
NCI-H522 = test: NCI one-dose screening, non-small cell lung cancer NCI-H522; type: cell-based, human; conditions: 10 μM
HOP-92 = test: NCI one-dose screening, non-small cell lung cancer HOP-92; type: cell-based, human; conditions: 10 μM
HCT-15 = test: NCI one-dose screening, colon cancer HCT-15; type: cell-based, human; conditions: 10 μM
NCI-H23 = test: NCI one-dose screening, non-small cell lung cancer NCI-H23; type: cell-based, human; conditions: 10 μM
SK-MEL-2 = test: NCI one-dose screening, melanoma SK-MEL-2; type: cell-based, human; conditions: 10 μM
[2] = NCI one-dose screening, renal cancer A489; type: cell-based, human; conditions: 10 μM
NCI-H322M = test: NCI one-dose screening, non-small cell lung cancer NCI-H322M; type: cell-based, human; conditions: 10 μM; Non-small cell lung cancer
M14 = test: NCI one-dose screening, melanoma M14; type: cell-based, human; conditions: 10 μM
U251 = test: NCI one-dose screening, CNS cancer U251; type: cell-based, human; conditions: 10 μM

SMILES: O=C1c2ccccc2C(=O)c2c1cc(SCc1ccccc1)c1nsnc21 [C21, 4-(benzyl-thio)anthra[2,1-c][1,2,5] thiadiazol-6,11-dione]
- IC50 ([1]; PC-3 prostate cancer cell line, Table II prints no unit, μM printed, read-out: SRB assay: 50% inhibition of cancer cell proliferation of sample concentration (IC50) of PC-3 prostate cancer cell line): > 15 µM
- pIC50 ([1]; PC-3 prostate cancer cells, read-out: IC50 in PC-3 prostate cancer cells (cell viability analysis)): < 4.82
- Growth Percent SF-268 (SF-268): 56.01%
- Growth Percent UACC-62 (UACC-62): 43.08%
- Growth Percent RPMI-8226 (PRMI-8226 cell line): 43.23%
- Growth Percent MDA-MB-435 (MDA, -MB-435): −48.29%
- Growth Percent SF-539 (SF-539): 68.26%
- Growth Percent HCT-116 (HCT-116): 53.06%
- Growth Percent MALME-3M (MALME-3M): 80.81%
- Growth Percent MOLT-4 (MOLT-4): −20.97%
- Growth Percent LOX IMVI (LOX IMVI): 7.49%
- Growth Percent HS 578T (HS 578-T): 59.96%
- Growth Percent DU145 (DU145): 82.23%
- Growth Percent OVCAR-3 (OVCAR-3): 25.27%
- Growth Percent K562 (K562cell line): 10.51%
- Growth Percent OVCAR-4 (OVCAR-4): −68.15%
- Growth Percent T-47D (T-47D): −46.11%
- Growth Percent MCF7 (MCF7): 56.44%
- Growth Percent MDA-MB-468 (MDA-MB-468): −85.29%
- Growth Percent SN12C (SN12C): 66.11%
- Growth Percent SK-OV-3 (SK-OV-3): 80.29%
- Growth Percent Delta (human tumor cell lines; delta over all cell lines): 136.92%
- Growth Percent Mean (human tumor cell lines; mean over all cell lines): 51.63%
- Growth Percent Range (human tumor cell lines; range over all cell lines): 215.19%
- Growth Percent SK-MEL-5 (SK-MEL-5): 22.53%
- Growth Percent KM12 (KM12): 103.02%
- Growth Percent SNB-19 (SNB-19): 94.26%
- Growth Percent MDA-MB-231/ATCC (MDA-MB-231/ATCC): −13.36%
- Growth Percent SF-295 (SF-295): 91.56%
- Growth Percent OVCAR-8 (OVCAR-8): 6.01%
- Growth Percent NCI-H460 (NCI-H460): 98.44%
- Growth Percent TK-10 (TK-10): 129.90%
- Growth Percent CCRF-CEM (CCRF-CEM): 0.65%
- Growth Percent HL-60(TB) (HL-60, TB): 70.32%
- Growth Percent CAKI-1 (CAKI-1): 73.77%
- Growth Percent HCC-2998 (HCC-2998): 115.02%
- Growth Percent UO-31 (UO-31): 73.75%
- Growth Percent SK-MEL-28 (SK-MEL-28): 95.00%
- Growth Percent HOP-62 (HOP-62): 94.98%
- Growth Percent SR (SR): 1.25%
- Growth Percent COLO 205 (COLO 205): 102.93%
- Growth Percent IGROV1 (IGROV1): 43.88%
- Growth Percent BT-549 (BT-549): 96.19%
- Growth Percent NCI/ADR-RES (NCl/ADR-RES): 62.34%
- Growth Percent RXF 393 (RXF, 393): 68.12%
- Growth Percent 786-0 (786-O): 92.60%
- Growth Percent UACC-257 (UACC-257): 58.86%
- Growth Percent A549/ATCC (A549/ATCC): 101.64%
- Growth Percent SNB-75 (SNB-75): 39.58%
- Growth Percent PC-3 (PC-3): 38.44%
- Growth Percent NCI-H522 (NCI-H522): 92.01%
- Growth Percent HOP-92 (HOP-92): 83.65%
- Growth Percent HCT-15 (HCT-15): 54.72%
- Growth Percent NCI-H23 (NCI-H23): 101.09%
- Growth Percent SK-MEL-2 (SK-MEL-2): −3.95%
- Growth Percent A498 [2]: 88.61%
- Growth Percent NCI-H322M (NCI-H322M): 55.30%
- Growth Percent M14 (M14): 86.54%
- Growth Percent U251 (U251): 30.51%
